Measured values taken from patent publication US6541495B1, “Carboxylic acid derivatives as inhibitors of hyperproliferation diseases” (Pfizer INC, priority 1999, dated 2003).

molecular target: T1, VEGF/GAG (glycosaminoglycan) binding (purified VEGF165, [125I]heparin-16-mer) (Homo sapiens, UniProt P15692); test: VEGF/GAG (glycosaminoglycan) binding inhibition, [125I]heparin-16-mer filter plate assay; conditions: activity data for representative compounds of formula I; in vitro VEGF165 / [125I]heparin-16-mer binding, 60 minutes at room temperature
T1 construct: purchased Repligen, Inc
T1 sequence (P15692 27-191 isoform P15692-4): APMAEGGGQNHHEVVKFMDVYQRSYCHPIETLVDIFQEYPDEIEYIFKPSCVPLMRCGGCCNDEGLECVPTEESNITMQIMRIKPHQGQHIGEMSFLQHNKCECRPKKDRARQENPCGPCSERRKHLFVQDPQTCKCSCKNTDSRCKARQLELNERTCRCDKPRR
Method: The in vitro activity of the compounds of formula I in inhibiting VEGF/GAG (glycosaminoglycan) binding may be measured using the assay described in U.S. Pat. No. 5,795,860, the subject matter of which is incorporated herein by reference.
Using mixed cellulose ester 96-well filter plates, 150 μL of Dulbeccos PBS (phosphate buffered saline) containing 10% ovalbumin is added. Compound (5.0 μL) is added at a final concentration of 1.8 μM. Compounds are dissolved in 8% DMSO (final DMSO concentration is 0.16%) and tested at concentrations of 32, 10, 3.2, 1.0, 0.32 and 0.10 μM. A mixture of [^125I]heparin-16-mer (4500 cpm per well), purified VEGF165 (20 nM final concentration/well, prepared by Repligen, Inc.) and Dulbeccos PBS with 10% ovalbumin is added to the 96-well plate in a volume of 100 μL. Nonspecific binding is defined using 10 μM heparin-sodium from porcine intestinal mucosa. The assay plate is incubated for 60 minutes at room temperature, filtered using a Millipore filtration apparatus, the plastic bottom plate is removed and the filter plate is allowed to completely dry. The plate bottom is sealed with plastic plate seal and 25 μL of scintillation cocktail is added to each well. The top plate is sealed and is counted for radioactivity on a Microbeta Scintillation Counter. The assay is run in a final volume of 250 μL.

`Cc1oc(-c2ccccc2)nc1Cc1cc2cc(CC(OCCCO)C(=O)O)ccc2o1` (stereo not drawn) [2-(3-Hydroxy-propoxy)-3-[2-(5-methyl-2-phenyl-oxazol-4-ylmethyl)-benzofuran-5-yl]-propionic acid] and `C=CCOC(Cc1ccc2oc(Cc3nc(-c4ccccc4)oc3C)cc2c1)C(=O)O` (stereo not drawn) [2-Allyloxy-3-[2-(5-methyl-2-phenyl-oxazol-4-ylmethyl)-benzofuran-5-yl]-propionic acid] are within 1.5-fold of each other in IC50: 14 µM for the first, 13 µM for the second.

`Cc1oc(-c2ccccc2)nc1Cc1cc2cc(CC(SCc3ccccc3)C(=O)O)ccc2o1` (stereo not drawn) [2-Benzylsulfanyl-3-[2-(5-methyl-2-phenyl-oxazol-4-ylmethyl)-benzofuran-5-yl]-propionic acid] and `Cc1oc(-c2ccccc2)nc1Cc1cc2cc(CC(Oc3ccccc3)C(=O)O)ccc2o1` (stereo not drawn) [3-[2-(5-Methyl-2-phenyl-oxazol-4-ylmethyl)-benzofuran-5-yl]-2-phenoxy-propionic acid] are within 1.5-fold of each other in IC50: 2.6 µM for the first, 2 µM for the second.

Compared with `CSC(Cc1ccc2oc(Cc3nc(-c4cccc(C)c4)oc3C)cc2c1)C(=O)O` (stereo not drawn) [2-Methylsulfanyl-3-[2-(5-methyl-2-m-tolyl-oxazol-4-ylmethyl)-benzofuran-5-yl]-propionic acid], `CCCSC(Cc1ccc2oc(Cc3nc(-c4ccccc4)oc3C)cc2c1)C(=O)O` (stereo not drawn) [3-[2-(5-Methyl-2-phenyl-oxazol-4-ylmethyl)-benzofuran-5-yl]-2-propylsulfanyl-propionic acid] is 5.3-fold lower in IC50: 8 µM for the first, 1.5 µM for the second. The second is the more potent here.

Compared with `CCCCCCCCSC(Cc1ccc2oc(Cc3nc(-c4ccccc4)oc3C)cc2c1)C(=O)O` (stereo not drawn) [3-[2-(5-Methyl-2-phenyl-oxazol-4-ylmethyl)-benzofuran-5-yl]-2-octylsulfanyl-propionic acid], `Cc1oc(-c2ccccc2)nc1Cc1cc2cc(CCC(=O)O)ccc2o1` [3-[2-(5-Methyl-2-phenyl-oxazol-4-ylmethyl)-benzofuran-5-yl]-propionic acid] is 8.5-fold higher in IC50: 0.8 µM for the first, 6.8 µM for the second.

With `CSC(Cc1ccc(OCCc2nc(-c3ccccc3)oc2C)cc1)C(=O)O` (stereo not drawn) [3-{4-[2-(5-Methyl-2-phenyl-oxazol-4-yl)-ethoxy]-phenyl}-2-methylsulfanyl-propionic acid] the IC50 was 4.5 µM.
